Reference: patent publication US20100143383A1, “OXGR1 AGONISTS FOR USE IN THERAPIES FOR METABOLIC DISORDERS” (priority 2008, published 2010)

Legend:
isolated mouse islets = assay: glucose-stimulated insulin secretion (GSIS/GDIS) in isolated mouse islets, insulin by ELISA; type: cell-based; settings: WT C57BL/6J mouse islets, 60 min, FIG. 3
Procedure: Pancreatic islets of Langerhans were isolated from the pancreata of wild type (WT) C57BL/6J mice (Taconic Farm, N.Y.) by collagenase digestion and discontinuous Ficoll gradient separation, a modification of the original method of Lacy and Kostianovsky (Lacy P E, Kostianovsky M: Diabetes 16:35-39, 1967). The islets were cultured overnight in RPMI 1640 medium (11 mM glucose) before GDIS assay.
To measure GSIS, islets were first preincubated for 30 min in the Krebs-Ringer bicarbonate (KRB) buffer with 2 mM glucose (in petri dishes). The KRB medium contains 143.5 mM Na+, 5.8 mM K+, 2.5 mM Ca2+, 1.2 mM Mg2+, 124.1 mM Cl−, 1.2 mM PO43−, 1.2 mM […], 25 mM CO32−2 mg/ml bovine serum albumin (pH 7.4). The islets were then transferred to a 96-well plate (one islet/well) and incubated at 37° C. for 60 min in 200 μl of KRB buffer with 2 or 16 mM glucose, and other agents to be tested such as GLP-1 included as a control. (Zhou Y P, et al: J Biol Chem 278:51316-51323, 2003). Insulin was measured in aliquots of the incubation buffer by ELISA with a commercial kit (ALPCO Diagnostics, Windham, N.H.).
The compound had no effects on the basal insulin secretion at 2 mM glucose (G2).

recombinant human OXGR1 = recombinant human OXGR1 (Homo sapiens, UniProt Q96P68); settings: Nature 429:188-193, 2004, read-out: EC50 for activation of OXGR1; cited from earlier work
recombinant mouse OXGR1 = recombinant mouse OXGR1 (Mus musculus, UniProt Q6IYF8); settings: Nature 429:188-193, 2004, read-out: EC50 for activation of OXGR1; cited from earlier work
recombinant mouse OXGR1, sequence (Q6IYF8 whole entry): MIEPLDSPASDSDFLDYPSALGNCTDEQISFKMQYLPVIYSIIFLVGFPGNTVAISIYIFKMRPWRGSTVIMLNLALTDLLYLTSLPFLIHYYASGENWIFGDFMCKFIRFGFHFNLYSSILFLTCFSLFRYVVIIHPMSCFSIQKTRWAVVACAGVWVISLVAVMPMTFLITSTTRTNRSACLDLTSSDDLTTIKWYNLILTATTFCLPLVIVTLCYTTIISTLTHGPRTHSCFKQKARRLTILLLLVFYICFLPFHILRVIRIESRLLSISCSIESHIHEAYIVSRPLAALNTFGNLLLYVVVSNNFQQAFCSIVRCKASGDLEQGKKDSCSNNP

recombinant human OXGR1, sequence (Q96P68 whole entry): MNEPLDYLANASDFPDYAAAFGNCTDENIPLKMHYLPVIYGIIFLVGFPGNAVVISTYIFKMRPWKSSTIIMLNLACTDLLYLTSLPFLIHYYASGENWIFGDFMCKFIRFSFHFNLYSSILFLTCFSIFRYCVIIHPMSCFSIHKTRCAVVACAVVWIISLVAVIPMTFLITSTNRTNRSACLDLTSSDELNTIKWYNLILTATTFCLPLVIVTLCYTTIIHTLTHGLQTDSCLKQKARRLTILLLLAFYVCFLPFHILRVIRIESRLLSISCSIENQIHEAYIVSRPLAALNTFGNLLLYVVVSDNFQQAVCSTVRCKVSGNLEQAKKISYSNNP

SMILES: O=C(O)CCC(=O)C(=O)O [α-KG, α-ketoglutarate]
- effect on basal insulin secretion at 2 mM glucose (G2) (isolated mouse islets; 2 mM glucose): no effects
- effect on 16 mM glucose (G16) stimulated insulin secretion (isolated mouse islets; 16 mM glucose): dose-dependently enhanced
- EC50 (recombinant human OXGR1): 70 µM
- EC50 (recombinant mouse OXGR1): 70 µM
